Measurements: patent publication US12419905B2, “Methods and compositions for the treatment of amyloid-related disorders” (YALE UNIVERSITY, priority 2018, dated 2025)

What was measured:
[1] = tested on: Aßo/PrP^C interaction in stably PrP^C-transfected CV1 cells; assay type: cell-based, rat
[2] = tested on: APP/PS1 transgenic Alzheimer's model mice; experiment: Morris water maze in APP/PS1 mice; assay type: in vivo, mouse; conditions: fresh ceftazidime (as Fortaz) 100 mg/kg IP BID
Protocol: For Morris water maze, mice were randomly assigned to treatment groups and the experimenter was unaware of both genotype and treatment group. Groups were balanced for age, sex, and weight. Mice used were 12-14 months of age at experiment initiation. During treatment, the experimenter was blinded to genotype. For drug treated mice, Poly(4-styrenesulfonic acid co-maleic acid) was administered by twice daily oral gavage of 5.0 mg and 15.0 mg Poly(4-styrenesulfonic acid co-maleic acid) per kg body weight in a vehicle of 0.5% w/v hydroxypropyl methylcellulose and 0.1% w/v polysorbate 80 to APP/PS1 and WT mice, respectively. Vehicle treated animals were gavaged twice daily with vehicle. 500 mg ceftazidime as Fortaz was dissolved per manufacturer's instructions in 1.5 ml sterile milliQ H2O to obtain 333 mg/ml in sodium carbonate solution. Animals treated peripherally with fresh ceftazidime were injected directly after dissolution intraperitoneally with 100 mg ceftazidime per kg body weight in a vehicle of PBS. Animals treated centrally with aged ceftazidime were fitted with an intracerebroventricular cannula (Alzet brain infusion kit 0008663) and subcutaneous osmotic minipump (Alzet model 1004) loaded with aged ceftazidime diluted in PBS. All animals were treated for 4 weeks prior to the Morris water maze and throughout assessment. […]

Compound | Aßo/PrP^C interaction-inhibiting activity, aged drug [1] | Aßo/PrP^C interaction-inhibiting activity, fresh drug [1] | MWM latency to hidden platform, effect of treatment [2]
CO/N=C(\C(=O)N[C@@H]1C(=O)N2C(C(=O)O)=C(COC(C)=O)CS[C@H]12)c1csc(N)n1 [cefotaxime] | zero activity | zero activity | –
CO/N=C(\C(=O)N[C@@H]1C(=O)N2C(C(=O)O)=C(CSc3nc(=O)c(=O)[nH]n3C)CS[C@H]12)c1csc(N)n1 [ceftriaxone] | zero activity | zero activity | –
CC(C)(O/N=C(\C(=O)N[C@@H]1C(=O)N2C(C(=O)[O-])=C(C[n+]3ccccc3)CS[C@H]12)c1csc(N)n1)C(=O)O [ceftazidime] | exhibited activity | – | no detectable effect
